# Experimental data reported in patent US11976065B2 (CELISTA PHARMACEUTICALS LLC, priority 2020, dated 2024).
# Test: pH of the samples in water, pH probe
# Type: physicochemical
# Details: aqueous sample
smiles,measurement,value
"CC(C)Cn1cnc2c(N)nc3ccccc3c21 [Imiquimod, 1-(2-methylpropyl)-1H-imidazo[4,5-c]quinolin-4-amine]",pH,7.10
